One assay deals with T1, TEC (Homo sapiens, UniProt P42680).
T1 construct: purchased Reaction Biology Europe GmbH
T1 sequence (P42680 1-631): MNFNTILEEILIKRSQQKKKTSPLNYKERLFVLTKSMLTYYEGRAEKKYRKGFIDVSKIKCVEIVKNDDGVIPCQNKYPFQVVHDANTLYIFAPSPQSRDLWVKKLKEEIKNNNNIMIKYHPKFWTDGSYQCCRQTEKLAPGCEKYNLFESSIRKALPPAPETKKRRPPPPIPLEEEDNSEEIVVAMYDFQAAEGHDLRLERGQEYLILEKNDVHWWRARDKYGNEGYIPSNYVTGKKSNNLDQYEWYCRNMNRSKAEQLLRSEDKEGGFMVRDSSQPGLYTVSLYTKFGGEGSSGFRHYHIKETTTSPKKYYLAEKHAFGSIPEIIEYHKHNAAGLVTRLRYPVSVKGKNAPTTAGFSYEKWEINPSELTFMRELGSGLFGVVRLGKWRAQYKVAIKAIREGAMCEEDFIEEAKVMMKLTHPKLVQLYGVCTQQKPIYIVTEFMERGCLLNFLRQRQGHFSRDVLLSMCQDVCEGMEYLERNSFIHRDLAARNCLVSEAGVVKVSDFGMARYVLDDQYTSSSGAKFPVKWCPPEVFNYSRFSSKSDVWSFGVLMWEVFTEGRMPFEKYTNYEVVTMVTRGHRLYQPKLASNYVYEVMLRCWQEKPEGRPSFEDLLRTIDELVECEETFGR
Description: PanQinase kinase panel: TEC. Format: biochemical. Conditions: for inhibition at 1 µM: read-out: INHIBITORY EFFECT @ 1 uM: TEC. The protocol:
Screening procedures were performed in accordance with the company's on-line protocol [accessed on-line Mar.
(§1) For each kinase, the median value of the cpm of three wells was defined as “low control” (n=3). This value reflects unspecific binding of radioactivity to the plate in the absence of a protein kinase but in the presence of the substrate. Additionally, for each kinase the median value of the cpm of three other wells was taken as the “high control,” i.e. full activity in the absence of any inhibitor (n=3). The difference between high and low control of each enzyme was taken as 100% activity.
As part of the data evaluation the low control of each kinase was subtracted from the high control value as well as from their corresponding “compound values”.

The target in the next assay is T2, FGFR2 (Homo sapiens, UniProt P21802).
T2 construct: purchased Reaction Biology Europe GmbH
The experiment in a line: PanQinase kinase panel: FGFR2. Format: biochemical. Conditions: read-out: INHIBITORY EFFECT @ 1 uM: FGFR2. The protocol: Screening procedures were performed in accordance with the company's on-line protocol [accessed on-line Mar. 25, 2022 at reaction biology.com/assay-protocol-panqinase]. Inhibitory activity of 50% or greater at concentrations of 1 μM are highlighted for all five compounds tested.
as §1
As part of the data evaluation the low control of each kinase was subtracted from the high control value as well as from their corresponding “compound values”. The residual activity (in %) for each compound well was calculated by using the following formula: Res. Activity (%)=100×[(signal of compound−low control)/(high control−low control)].

Another assay concerns U-87 MG. Description: Glioblastoma multiforme cell proliferation assay (CellTiter Glo), U-87 MG. Conditions: Homo sapiens; for Emax: read-out: GBM-U87MG Cell Proliferation Emax %. Format: cell-based. As to the method:
Inhibition of glioblastoma multiforme cell proliferation by compounds of the present invention was evaluated in U-87 MG (ATCC; Cat. No. HTB-14; Lot. No. 5018014) and T98G (ATCC; Cat. No. CRL-1690; Lot. No. 58267513) cell lines. These are adherent cell lines isolated from glioblastoma multiforme/malignant glioma, which express both CXCR4 and BTK (see Zhou et al. 2002 and Yue et al. 2017).
Cell viability was analyzed with the CellTiter Glo Cell assay kit ([…], Cat. No. G7573, Lot. No. 0000474103), according to the manufacturer's instruction.
U-87 MG and T98G cells were seeded onto 384-well opaque-walled clear bottom plates (Corning, Cat. No. 3765, Lot. No. 34319047) in EMEM (Invitrogen, Cat. No. 11095-080; Lot. No. 2276656) supplemented with 10% FBS (Invitrogen, Cat. No. 10099-141C, Lot. No. 2145169CP), at a seeding density of 1000 or 1200 cells per well, respectively, and then incubated in 5% CO2 at 37° C. overnight.
Compounds were prepared as stock solutions of 30 mM in DMSO (Sigma, Cat. No. 276855-1L. Lot. No. SHBL5610). Compounds were added to the cells, with 10 dose points in duplicates, in 3-fold dilution from a top concentration of 30 μM (final DMSO concentration […]), and incubated in 5% CO2 at 37° C. for 96 hr.
The 384-well plates were equilibrated at room temperature for approximately 30 min. 25 μl of CellTiter-Glo® Reagent was added to each well and mixed for 10 min on an orbital shaker to induce cell lysis. The 384-well plates were incubated at room temperature for 10 min to stabilize luminescent signal. Luminescence was detected on a PerkinElmer EnVision Multimode Plate Reader (measurement time 0.1s) as relative luminescence units (RLU).
A general note: ATP-based viability assays read luminescence as a measure of living cells.

Setting [1] is: Table 6A, cell viability, 96 hr, read-out: U-87 MG IC50.

Like-named read-outs stand apart in the source and are kept apart here.

T2 sequence (P21802 22-821): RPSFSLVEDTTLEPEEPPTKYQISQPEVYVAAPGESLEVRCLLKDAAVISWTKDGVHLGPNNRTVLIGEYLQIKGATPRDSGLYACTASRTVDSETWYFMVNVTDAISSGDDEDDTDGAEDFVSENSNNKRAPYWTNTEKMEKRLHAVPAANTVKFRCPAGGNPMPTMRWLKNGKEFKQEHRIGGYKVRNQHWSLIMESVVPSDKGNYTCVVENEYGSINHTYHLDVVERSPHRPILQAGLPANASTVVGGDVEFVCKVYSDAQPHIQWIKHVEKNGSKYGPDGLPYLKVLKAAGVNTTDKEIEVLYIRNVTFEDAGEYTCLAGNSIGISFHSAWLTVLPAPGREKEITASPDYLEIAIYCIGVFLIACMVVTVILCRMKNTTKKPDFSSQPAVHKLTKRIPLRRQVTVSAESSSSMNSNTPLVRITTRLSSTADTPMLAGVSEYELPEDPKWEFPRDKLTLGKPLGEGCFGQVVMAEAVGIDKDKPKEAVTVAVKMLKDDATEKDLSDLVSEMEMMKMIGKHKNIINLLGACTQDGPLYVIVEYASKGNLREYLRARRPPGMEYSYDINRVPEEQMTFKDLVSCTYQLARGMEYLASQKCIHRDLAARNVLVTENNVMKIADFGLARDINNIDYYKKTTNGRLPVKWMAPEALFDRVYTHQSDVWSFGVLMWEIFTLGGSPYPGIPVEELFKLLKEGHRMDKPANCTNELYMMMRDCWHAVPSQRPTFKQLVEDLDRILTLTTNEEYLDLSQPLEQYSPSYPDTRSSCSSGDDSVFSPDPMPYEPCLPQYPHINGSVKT

With `O=C(c1ccc(Oc2ccccc2)cc1Cl)c1c[nH]c2ncnc(N[C@@H]3CC[C@@H](CO)OC3)c12` [ARQ-531, (2-chloro-4-phenoxyphenyl) (4-(((3R,6S)-6-(hydroxymethyl)tetrahydro-2H-pyran-3-yl)amino)-7H-pyrrolo[2,3-d]pyrimidin-5-yl) methanone], the inhibition at 1 µM at TEC and at FGFR2 was 90 to 100% throughout.

For the compound `Cc1cccnc1[C@H]1CCC[C@@H](c2ncccc2C)N1CCN1CCN(C(=O)c2ccc(-c3cc4c(-c5cccc(NC(=O)c6ccccc6)c5C)ncnc4[nH]3)cc2)CC1` [Compound I-10, N-(3-(6-(4-(4-(2-((2R,6S)-2,6-bis(3-methylpyridin-2-yl)piperidin-1-yl)ethyl)piperazine-1-carbonyl)phenyl)-7H-pyrrolo[2,3-d]pyrimidin-4-yl)-2-methylphenyl)benzamide], the figures for the inhibition at 1 µM on TEC and on FGFR2 were 70 to 89% and less than 50%, respectively. For the same compound, in the assay with U-87 MG (Table 6B), the Emax turned out to be 101%. Moreover, the IC50 in the assay on U-87 MG (read-out: GBM-U87MG Cell Proliferation IC50 uM) stood at 0.76 µM.

Consider `Cc1cc(-c2ccnc(Nc3cnn(CCN4[C@@H](c5ncccc5C)CCC[C@H]4c4ncccc4C)c3)n2)ccc1CNC(=O)N1CC(OC(C)C)C1` [Compound I-11], for which, in the assay on U-87 MG (Table 6B), the Emax turned out to be 96%. The IC50 in the assay with U-87 MG (Table 6B, read-out: GBM-U87MG Cell Proliferation IC50) is 0.66 µM.

Turning to `Cc1cccnc1[C@H]1CCC[C@@H](c2ncccc2C)N1CCCCNC(=O)[C@@H]1CC[C@@H](Nc2ncnc3[nH]cc(C(=O)c4ccc(Oc5ccccc5)cc4Cl)c23)CO1` [Compound I-16], the IC50 in the assay on U-87 MG (setting [1]) was 1.3 µM.

For `Cc1cccnc1[C@H]1CCC[C@@H](c2ncccc2C)N1CCCCNC(=O)OC[C@@H]1CC[C@@H](Nc2ncnc3[nH]cc(C(=O)c4ccc(Oc5ccccc5)cc4Cl)c23)CO1` [Compound I-18], the IC50 with U-87 MG (setting [1]) was found to be 1.2 µM.

`COc1ccc(F)cc1C(=O)NCc1ccc(-c2nn([C@@H](C)C(F)(F)F)c(N)c2C(N)=O)cc1` [LOXO-305, pirtobrutinib]: the results for the inhibition at 1 µM at TEC and on FGFR2 were 90 to 100% and less than 50%, respectively.

Turning to `C=CC(=O)N1CCC([C@@H]2CCNc3c(C(N)=O)c(-c4ccc(Oc5ccccc5)cc4)nn32)CC1` [Zanubrutinib, (7S)-2-(4-phenoxyphenyl)-7-(1-prop-2-enoylpiperidin-4-yl)-4,5,6,7-tetrahydropyrazolo[1,5-a]pyrimidine-3-carboxamide], the “INHIBITORY EFFECT @ 1 uM: TEC” value on TEC (1 uM) is on record as “++++ (90%-100% Inhibition at 1 uM)”. Further, at FGFR2, the inhibition at 1 µM is less than 50%.

(Values after patent US20250326753A1, “DUAL CXCR4-BTK INHIBITORS” (X4 Pharmaceuticals, Inc., priority 2022, published 2025).)
